Assay results from patent US7462605B2, “Phosphoramidate compounds and methods of use” (Celmed Oncology (USA), Inc., priority 2002, dated 2008).
Like-named read-outs stand apart in the source and are kept apart here.

Tests used:
[1] = system: H527 (Skin) normal cells; test: alamarBlue growth inhibition, H527; format: cell-based, human; conditions: Homo sapiens, 120 hours
Procedure: (§1) Growth Inhibition Studies. Cells growing exponentially were transferred to 384-well flat bottom tissue culture plates. All cell types were plated at a density of 500 cells per well in 25 μL of complete medium (RPMI 1640+10% fetal bovine serum+antibiotics/antimycotics). After 24 hours (day 0), 25 μL of complete medium containing the experimental compounds over the dose range of 10^ñ3 to 10^ñ10 M were added in triplicate. […] 5 μL of the redox indicator, alamarBlue, was added to each well (10% v/v). After 4 hours incubation at 37° C., fluorescence was monitored at 535 nm excitation and 595 nm emission.
(§2) Concentration vs. relative fluorescence units (RFU) were plotted, and sigmoid curves were fit using the Hill equation.

[2] = system: HCTC (Colon) tumor cells; test: alamarBlue growth inhibition, HCTC; format: cell-based, human; conditions: Homo sapiens, 120 hours
Procedure: as §1, §2

[3] = system: NHOST (Bone) normal cells; test: alamarBlue growth inhibition, NHOST; format: cell-based, human; conditions: Homo sapiens, 120 hours
Procedure: as §1, §2

[4] = system: SKLU1 (Lung) tumor cells; test: alamarBlue growth inhibition, SKLU1; format: cell-based, human; conditions: Homo sapiens, SK-LU-1, 120 hours
Procedure: as §1, §2

[5] = system: NHEPF (Liver) normal cells; test: alamarBlue growth inhibition, NHEPF; format: cell-based, human; conditions: Homo sapiens, 120 hours
Procedure: as §1, §2

[6] = system: A431 (Skin) tumor cells; test: alamarBlue growth inhibition, A431; format: cell-based, human; conditions: Homo sapiens, A-431, 120 hours
Procedure: as §1, §2

[7] = system: HT1080 (Colon) tumor cells; test: alamarBlue growth inhibition, HT1080; format: cell-based, human; conditions: Homo sapiens, HT-1080, 120 hours
Procedure: as §1, §2

[8] = system: NCI H520 (Lung) tumor cells; test: alamarBlue growth inhibition, NCI H520; format: cell-based, human; conditions: Homo sapiens, 120 hours
Procedure: as §1, §2

[9] = system: DET551 (Skin) normal cells; test: alamarBlue growth inhibition, DET551; format: cell-based, human; conditions: Homo sapiens, 120 hours
Procedure: as §1, §2

[10] = system: SKHEP1 (Liver) tumor cells; test: alamarBlue growth inhibition, SKHEP1; format: cell-based, human; conditions: Homo sapiens, SK-HEP1, 120 hours
Procedure: as §1, §2

[11] = H630-10 5-FU resistant colon carcinoma xenografts in athymic mice; conditions: female, CD-1 (nu/nu) athymic, mouse, in vivo, ip
Procedure: Tumor measurements began on the first day of treatment (Day 1).
Following cell expansion ex-vivo H630-10 were injected subcutaneously (S.Q.) at 1.5×10^7 cells/tumor in the mid-back region of 4-6 week old, female, CD-1 (nu/nu), athymic mice (Charles River Laboratories, Wilmington, Mass.). Tumor volumes, calculated as the product of length, width, and depth, were monitored twice weekly by serial micrometer measurements by a single observer. Six animals were randomly assigned to each treatment group and statistical tests were performed (single-factor ANOVA) to assure uniformity in starting tumor volumes between treatment and control groups at the beginning of the experiment. […] To assure accurate dosing, drug doses were individualized based upon animal weights determined immediately prior to each injection. […] Differences in day 25 xenograft volumes between groups were analyzed by single-factor ANOVA of the log transformed tumor volume data.

[12] = system: W138 (Lung) normal cells; test: alamarBlue growth inhibition, W138; format: cell-based, human; conditions: Homo sapiens, 120 hours
Procedure: as §1, §2

[13] = system: MRC9 (Lung) normal cells; test: alamarBlue growth inhibition, MRC9; format: cell-based, human; conditions: Homo sapiens, 120 hours
Procedure: as §1, §2

[14] = system: NHA (Brain) normal cells; test: alamarBlue growth inhibition, NHA; format: cell-based, human; conditions: Homo sapiens, 120 hours
Procedure: as §1, §2

[15] = system: SKCO1 (Colon) tumor cells; test: alamarBlue growth inhibition, SKCO1; format: cell-based, human; conditions: Homo sapiens, SK-CO-1, 120 hours
Procedure: as §1, §2

[16] = system: MDAMB468 (Breast) tumor cells; test: alamarBlue growth inhibition, MDAMB468; format: cell-based, human; conditions: Homo sapiens, MDA-MB-468, 120 hours
Procedure: as §1, §2

[17] = system: COLO205 (Colon) tumor cells; test: alamarBlue growth inhibition, COLO205; format: cell-based, human; conditions: Homo sapiens, COLO 205, 120 hours
Procedure: as §1, §2

[18] = system: MCIxc (Brain) tumor cells; test: alamarBlue growth inhibition, MCIxc; format: cell-based, human; conditions: Homo sapiens, MC-IXC, 120 hours
Procedure: as §1, §2

[19] = system: PC3 (Prostate) tumor cells; test: alamarBlue growth inhibition, PC3; format: cell-based, human; conditions: Homo sapiens, 120 hours
Procedure: as §1, §2

[20] = system: NHLF (Lung) normal cells; test: alamarBlue growth inhibition, NHLF; format: cell-based, human; conditions: Homo sapiens, 120 hours
Procedure: as §1, §2

[21] = system: NHDF (Skin) normal cells; test: alamarBlue growth inhibition, NHDF; format: cell-based, human; conditions: Homo sapiens, 120 hours
Procedure: as §1, §2

[22] = system: MDAMB361 (Breast) tumor cells; test: alamarBlue growth inhibition, MDAMB361; format: cell-based, human; conditions: Homo sapiens, MDA-MB-361, 120 hours
Procedure: as §1, §2

[23] = system: SW527 (Breast) tumor cells; test: alamarBlue growth inhibition, SW527; format: cell-based, human; conditions: Homo sapiens, 120 hours
Procedure: as §1, §2

[24] = system: SOAS2 (Bone) tumor cells; test: alamarBlue growth inhibition, SOAS2; format: cell-based, human; conditions: Homo sapiens, 120 hours
Procedure: as §1, §2

[25] = system: SKOV3 (Ovary) tumor cells; test: alamarBlue growth inhibition, SKOV3; format: cell-based, human; conditions: Homo sapiens, SK-OV-3, 120 hours
Procedure: as §1, §2

[26] = system: NPRSC (Prostate) normal cells; test: alamarBlue growth inhibition, NPRSC; format: cell-based, human; conditions: Homo sapiens, 120 hours
Procedure: as §1, §2

[27] = system: PANC1 (Pancreas) tumor cells; test: alamarBlue growth inhibition, PANC1; format: cell-based, human; conditions: Homo sapiens, PANC-1, 120 hours
Procedure: as §1, §2

[28] = system: normal and tumor cell types; test: cells; conditions: Homo sapiens
Procedure: Growth Inhibition Studies. Cells growing exponentially were transferred to 384-well flat bottom tissue culture plates. All cell types were plated at a density of 500 cells per well in 25 μL of complete medium (RPMI 1640+10% fetal bovine serum+antibiotics/antimycotics). After 24 hours (day 0), 25 μL of complete medium containing the experimental compounds over the dose range of 10^ñ3 to 10^ñ10 M were added in triplicate. Drug exposure time was 120 hours (day 5), after which growth inhibition was assayed. 5 μL of the redox indicator, alamarBlue, was added to each well (10% v/v). After 4 hours incubation at 37° C., fluorescence was monitored at 535 nm excitation and 595 nm emission.
as §2
Assays were carried out as described in Methods, above. Therapeutic index is calculated as the ratio of the average IC50 for normal cells to the average IC50 for tumor cells. All assays were done at least three times.

[29] = system: H630R10 5FU-resistant colon tumor cells; test: alamarBlue growth inhibition, H630R10; format: cell-based, human; conditions: Homo sapiens; Tumor Cells: H630R10 (Colon); alamarBlue, 120 hours; read-out: IC50
Procedure: as §1, §2

[30] = system: SW620 (Colon) tumor cells; test: alamarBlue growth inhibition, SW620; format: cell-based, human; conditions: Homo sapiens, SW-620, 120 hours
Procedure: as §1, §2

[31] = system: COLO320 (Colon) tumor cells; test: alamarBlue growth inhibition, COLO320; format: cell-based, human; conditions: Homo sapiens, COLO 320, 120 hours
Procedure: as §1, §2

[32] = system: HEPG2 (Liver) tumor cells; test: alamarBlue growth inhibition, HEPG2; format: cell-based, human; conditions: Homo sapiens, 120 hours
Procedure: as §1, §2

[33] = system: CCD18co normal colon epithelial cells; test: alamarBlue growth inhibition, CCD18co; format: cell-based, human; conditions: Homo sapiens, CCD-18Co; Normal Cells: CCD1800 (Colon); alamarBlue, 120 hours
Procedure: as §1, §2

[34] = system: MCF7TDX cells; test: 384-well interaction screening assay (alamarBlue) with NB1011, MCF7TDX; format: cell-based, human; conditions: drug combined with NB1011, MCF7TDX, 384-well alamarBlue, 5-day
Procedure: Cell lines: Normal human colon epithelial cells (CCD18co) and skin fibroblasts (Det55 1) were purchased from ATCC (Rockville,Md.). MCF7TDX, human breast carcinoma cells resistant to 2 μM Tomudex were obtained from Dr. Patrick Johnston, Queens University, Belfast. […] The MCF7TDX and the H630R10 cell lines have been previously described in Drake, J. C. et al. (1996) and Copur, S. et al. (1995) respectively.
Culture Conditions: All cells were cultured under standard conditions of 37° C., 95% humidified air, 5% CO2 in RPMI 1640 culture medium containing 10% fetal calf serum (Life Technologies) and penicillin/streptomycin/fungizone. […] The medium was renewed or the cells were passaged about every three days to maintain optimal growth conditions. […]
Cytotoxicity Studies: 384-well interaction screening assay. […] Following a 5-day incubation, the redox indicator dye, alamarBlue (AccuMed International, Westlake, Ohio) was added to each well at a 10% v/v ratio, and fluorescence was monitored at 535 excitation, 595 emission. Cytotoxic effect levels and drug interactions were assessed by the combination index method (Chou, T. C. and Talalay, P. (1984) and Bible, K. C. et al. (1997)), described briefly below. […] Sigmoid curves were fit according to the Hill inhibitory Emax model, and IC50 calculated as the average of three or more separate determinations. […]

Compound: O=c1[nH]cc(F)c(=O)[nH]1 [5FU, 5-fluorouracil]
- IC50 [1]: 1600 nM
- IC50 [2]: 2800 nM
- IC50 [3]: 4700 nM
- IC50 [4]: 7900 nM
- IC50 [5]: 1700 nM
- IC50 [6]: 200 nM
- IC50 [7]: 800 nM
- IC50 [8]: 600 nM
- IC50 [9]: 800 nM
- IC50 [10]: 1700 nM
- MTD at 5 days [11]: 15 mg/kg
- IC50 [12]: 1000 nM
- IC50 [13]: 1100 nM
- IC50 [14]: 900 nM
- IC50 [15]: 1400 nM
- IC50 [16]: 4400 nM
- IC50 [17]: 1300 nM
- IC50 [18]: 1200 nM
- IC50 [19]: 900 nM
- IC50 [20]: 900 nM
- IC50 [21]: 800 nM
- IC50 [22]: 5000 nM
- IC50 [23]: 4300 nM
- IC50 [24]: 1400 nM
- IC50 [25]: 3000 nM
- IC50 [26]: 1700 nM
- IC50 [27]: 1900 nM
- IC50 ([28]; read-out: IC50 (μM), Average, average of the 11 normal cell types): 1.6 µM
- IC50 ([28]; read-out: IC50 (μM), Average, average of the 21 tumor cell lines): 5.3 µM
- IC50 [29]: 41600 nM
- IC50 [30]: 4600 nM
- IC50 [31]: 1500 nM
- IC50 [32]: 22800 nM
- IC50 [33]: 2000 nM

Compound: CCc1c2c(nc3ccc(OC(=O)N4CCC(N5CCCCC5)CC4)cc13)-c1cc3c(c(=O)n1C2)COC(=O)[C@]3(O)CC [Irinotecan]
- Combination Index ± s.e.m. [34]: 1.36 ± 0.38
